Experimental findings from US20200138892A1, “ANTI-DIABETIC ACTIVITY OF NEEM EXTRACT AND SYNERGISTIC COMBINATIONS OF UROLITHINS A AND B” (Natreon, Inc., priority 2018, published 2020) are described below.

What all share (assay type): in vivo
Assay [1] has as its system streptozotocin-induced diabetic mice. Put plainly: Fasting blood glucose in streptozotocin-induced diabetic mice (Study 2). The conditions noted are these: for Fasting blood glucose: 10 mg/kg body weight orally; for Effect on STZ-induced increased sugar level (FBG), words: 10 mg/kg orally for 1 month, p<0.001 vs STZ. On the procedure: Body weight, food intake, water intake, and fasting blood glucose (blood was collected following 12 hours fasting) were measured pre-induction of diabetes. Diabetes was induced by administering streptozotocin (50 mg/kg, body weight) in sodium citrate buffer, pH 4.5, intraperitoneally. Five days after streptozotocin administration fasting blood glucose was estimated (following 12 hours of fasting). Mice having blood glucose level 250±20 mg % was considered for the following study. The male and female mice were divided into the following four groups (n=8):
Following streptozotocin-induced hyperglycemia, treatment regimen was carried out for 1 month. 3-OH-DBP (Urolithin B) and 3,8-(OH)2-DBP (Urolithin A) each was separately suspended in 0.3% CMC and administered at a dose of 10 mg/kg body weight orally for 1 month. During the 1-month treatment, body weight and food and water intake were monitored at regular intervals. FBG (following 12 hours of fasting) was estimated twice at 15-day intervals. The results were expressed in terms of mean±SEM (n=8). The data were subjected to one-way ANOVA followed by Tukey's test using GraphPad Prism 4.0 software to establish statistical significance (*p<0.05, **p<0.01, ***p<0.001; ^# p<0.05, ^## p<0.01, ^### p<0.001).

Assay [2] has the same test system. Put plainly: Fasting blood glucose in streptozotocin-induced diabetic mice (Study 1). The conditions noted are these: for Blood sugar level (FBG): 250 mg/kg b.w. orally; for Effect on STZ-induced increased sugar level (FBG), words: Neem 50, Neem 100, Neem 250, Met 250, vs STZ-induced diabetic mice. On the procedure: (§1) Body weight, food intake, water intake, and fasting basal blood glucose level were measured before induction on diabetes. Diabetes was induced by single administration of streptozotocin (65 mg/kg body weight) in sodium citrate buffer, pH 4.5, intraperitoneally. Five days after streptozotocin administration, fasting blood glucose level was estimated. Mice having blood glucose levels of 230±20 mg % were considered for the study. The male and female mice each were divided into the following groups:
Following streptozotocin-induced hyperglycemia, the treatment regimen was carried out for two weeks. Neem extract was suspended in 0.3% sodium carboxymethylcellulose (“CMC”) and administered at a dose of 50 mg/kg b.w., 100 mg/kg b.w., and 250 mg/kg b.w. orally for two weeks. Similarly, metformin was suspended in 0.3% CMC and administered at a dose of 250 mg/kg b.w. orally for two weeks. During the treatment schedule, body weight and food and water intake were monitored at regular intervals. Fasting blood glucose (“FBG”), HbA1C, plasma cholesterol, and triglyceride levels were monitored every week for two weeks. The results were expressed in terms of mean±SEM (n=4, from each gender). The data were subjected to one-way ANOVA followed by Tukey's test using GraphPad Prism 4.0 software to establish statistical significance (*p<0.05, **p<0.01, ***p<0.001; ^# p<0.05, ^## p<0.01, ^### p<0.001).

Assay [3] shares this test system. Put plainly: HbA1C level in streptozotocin-induced diabetic mice (Study 1). The conditions noted are these: for HbA1C level: 250 mg/kg b.w. orally. On the procedure:
as §1
Following streptozotocin-induced hyperglycemia, the treatment regimen was carried out for two weeks. Neem extract was suspended in 0.3% sodium carboxymethylcellulose (“CMC”) and administered at a dose of 50 mg/kg b.w., 100 mg/kg b.w., and 250 mg/kg b.w. orally for two weeks. Similarly, metformin was suspended in 0.3% CMC and administered at a dose of 250 mg/kg b.w. orally for two weeks. During the treatment schedule, body weight and food and water intake were monitored at regular intervals. […] The results were expressed in terms of mean±SEM (n=4, from each gender). The data were subjected to one-way ANOVA followed by Tukey's test using GraphPad Prism 4.0 software to establish statistical significance (*p<0.05, **p<0.01, ***p<0.001; ^# p<0.05, ^## p<0.01, ^### p<0.001).

The test system is the same in assay [4]. Put plainly: Fasting blood glucose in streptozotocin-induced diabetic mice (Study 1). The conditions noted are these: 250 mg/kg b.w. orally, Week 3.
Where [5] appears, read: STZ-induced diabetic female mice, Day 5 (Post-Induction).
Where [6] appears, read: STZ-induced diabetic female mice, Day 15 of treatment.
The mark [7] stands for this setting: STZ-induced diabetic female mice, Day 30 of treatment.
Setting [8] is: STZ-induced diabetic female mice, Pre-Induction.
Where [9] appears, read: STZ-induced diabetic male mice, Day 5 (Post-Induction).
[10] abbreviates: STZ-induced diabetic male mice, Day 15 of treatment.
Setting [11] is: STZ-induced diabetic male mice, Day 30 of treatment.
The mark [12] stands for this setting: STZ-induced diabetic male mice, Pre-Induction.
Setting [13] is: STZ-induced diabetic female mice, Week 2.
The mark [14] stands for this setting: STZ-induced diabetic male mice, Week 2.

The structures appear in SMILES notation. Marks after values point to notes of the source that are not given here.

`O=c1oc2cc(O)ccc2c2ccc(O)cc12` [3,8-(OH)2-DBP, 3,8-dihydroxy-dibenzo-α-pyrone]: the Fasting blood glucose in assay [1] (setting [5]) was 253.2 ± 5.194*** mg %; in assay [1] (setting [6]), 166 ± 2.623***^, ### mg %; in assay [1] (setting [7]), 153.9 ± 9.953***^, ### mg %; in assay [1] (setting [8]) it was 95.45 ± 12.67 mg %; in assay [1] (setting [9]), 252.2 ± 1.780 mg %; in assay [1] (setting [10]), 166 ± 5.276***^, ### mg %. Moreover, the Fasting blood glucose is recorded as 156.7 ± 10.75***^, ### mg % in assay [1] (setting [11]) and 94.12 ± 7.811*** mg % in assay [1] (setting [12]). Moreover, the “Effect on STZ-induced increased sugar level (FBG), words” value in assay [1] (female mice) and in assay [1] (male mice) was “attenuated the STZ-induced increased sugar level” in each case.
As for `O=c1oc2cc(O)ccc2c2ccccc12` [3-OH-DBP, 3-hydroxy-dibenzo-α-pyrone], the Fasting blood glucose is given as 251.6 ± 1.280*** mg % in assay [1] (setting [5]); 189.8 ± 2.690***^, ### mg % in assay [1] (setting [6]); 147.3 ± 15.21***^, ### mg % in assay [1] (setting [7]); 126.8 ± 3.848 mg % in assay [1] (setting [8]); 254.6 ± 1.575 mg % in assay [1] (setting [9]); 171 ± 6.586***^, ### mg % in assay [1] (setting [10]). Besides, the Fasting blood glucose in assay [1] (setting [11]) was 134.2 ± 3.381***^, ### mg %; in assay [1] (setting [12]), 99.06 ± 14.73*** mg %. The “Effect on STZ-induced increased sugar level (FBG), words” value in assay [1] (female mice) and in assay [1] (male mice) was “attenuated the STZ-induced increased sugar level” in each case.
Turning to `CN(C)C(=N)N=C(N)N` [Metformin, metformin], the “Blood sugar level (FBG)” value in assay [2] (STZ-induced diabetic female mice, Day 0) is recorded as 119.2 ± 15.5 ^ mg %; in assay [2] (STZ-induced diabetic female mice, Week 1) it was 241.1 ± 22.19*** mg %; in assay [2] (setting [13]), 133.8 ± 9.04^## mg %; in assay [2] (STZ-induced diabetic male mice, Day 0) it was 117.3 ± 23.99 ^ mg %; in assay [2] (STZ-induced diabetic male mice, Week 1) it was 269.2 ± 25.37*** mg %; in assay [2] (setting [14]), 133.4 ± 7.96**^, # mg %. Also, the “Blood sugar level (FBG)” value stood at 121.2 ± 8.192 mg % in assay [4] (STZ-induced diabetic female mice) and 136.2 ± 4.89 mg % in assay [4] (STZ-induced diabetic male mice). The “Effect on STZ-induced increased sugar level (FBG), words” value in assay [2] (female mice) and in assay [2] (male mice) was “attenuated the STZ-induced increased sugar level” in each case. Moreover, the HbA1C level is given as 5.53 ± 0.46% in assay [3] (setting [13]); 3.08 ± 0.58^## % in assay [3] (STZ-induced diabetic female mice, Week 3); 5.05 ± 0.51% in assay [3] (setting [14]); 4.40 ± 0.65^# % in assay [3] (STZ-induced diabetic male mice, Week 3). The “Effect on STZ-induced increase in HbA1C level, words” value in assay [3] (male and female mice, Neem 50, Neem 100, Neem 250, Met 250, vs STZ-induced diabetic mice) is reported as “attenuated the STZ-induced increased in HbA1C level”.
